Reference: ChEMBL document CHEMBL1201862, “PubChem BioAssay data set” (2004)
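Compound exposure: 48 hours, 5 concentrations, 96-well plates. Here, GI50 denotes the concentration required for 50% inhibition of growth.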 The source made the active and inactive calls. Cut-off read from the data, not from the text of the source: active = GI50 up to about 1.1 µM and inactive = higher.

Key:
Assay in all cases: NCI-60 cell line screen, 48 h
NCI-H23 = tested on: NCI-H23
SF-295 = tested on: SF-295
DLD-1 = tested on: DLD-1
SK-OV-3 = tested on: SK-OV-3
M14 = tested on: M14
SNB-75 = tested on: SNB-75
SNB-19 = tested on: SNB-19
SF-539 = tested on: SF-539
CAKI-1 = tested on: CAKI-1
Malme-3M = tested on: Malme-3M
NCI-H460 = tested on: NCI-H460
786-0 = tested on: 786-0
MDA-MB-231 = tested on: MDA-MB-231
HT-29 = tested on: HT-29
OVCAR-3 = tested on: OVCAR-3
KM12 = tested on: KM12
SK-MEL-2 = tested on: SK-MEL-2
OVCAR-8 = tested on: OVCAR-8
LOX IMVI = tested on: LOX IMVI
CCRF-CEM = tested on: CCRF-CEM

Measured: GI50

CC1(C)CC(Nc2ccc(Nc3ccccc3)cc2)CC(C)(C)N1
inactive: NCI-H23 42.4 µM | SF-295 68.2 µM | DLD-1 70.5 µM | SK-OV-3 > 100 µM | M14 17.7 µM | SNB-75 37.6 µM | SNB-19 50.2 µM | SF-539 15.8 µM | CAKI-1 22.9 µM | Malme-3M 17.9 µM | NCI-H460 27.9 µM | 786-0 21.1 µM | MDA-MB-231 14.9 µM | HT-29 21.3 µM | OVCAR-3 18.4 µM | KM12 44.1 µM | SK-MEL-2 23.8 µM | OVCAR-8 30.1 µM | LOX IMVI 24.6 µM | CCRF-CEM 6.41 µM

Cc1ccc(N(C(=O)CC(=O)N2N=C(c3ccccc3)C(/N=N/c3ccc([N+](=O)[O-])cc3)C2=O)C(=O)c2ccc(Cl)cc2)cc1 (stereo not drawn)
inactive: NCI-H23 5.98 µM | SF-295 9.2 µM | DLD-1 21.2 µM | SK-OV-3 12.2 µM | M14 5.69 µM | SNB-75 10.4 µM | SNB-19 17.3 µM | SF-539 19.8 µM | CAKI-1 28.4 µM | Malme-3M > 100 µM | NCI-H460 19 µM | 786-0 14.4 µM | HT-29 31 µM | OVCAR-3 24 µM | KM12 20.4 µM | SK-MEL-2 > 38.8 µM | OVCAR-8 18.1 µM | LOX IMVI 3.7 µM | CCRF-CEM 5.27 µM

O=C1Cc2c([nH]c3ccccc23)-c2ccccc2N1 [PAULLONE]
inactive: NCI-H23 16 µM | SF-295 37.8 µM | DLD-1 33.3 µM | SK-OV-3 > 100 µM | M14 42.5 µM | SNB-75 19.8 µM | SNB-19 61.4 µM | SF-539 18.3 µM | CAKI-1 42.4 µM | Malme-3M 61.1 µM | NCI-H460 34.7 µM | 786-0 75.3 µM | HT-29 26 µM | OVCAR-3 23.1 µM | KM12 18.3 µM | SK-MEL-2 43.3 µM | OVCAR-8 40.1 µM | LOX IMVI 16.5 µM | CCRF-CEM 22.2 µM
